Results reported in patent US20210015793A1, “COMPOUNDS FOR TREATING CNS- AND NEURODEGENERATIVE DISEASES” (ETH ZURICH, priority 2018, published 2021).

Key:
[1] = test system: Tg2576 AD mice; assay: Abeta plaque load by immunohistology (BAM-10) in Tg2576 mice; format: in vivo, mouse; conditions: 18-month-old Tg2576 mice, 8 mg/kg/d in drinking water for 6 months, vs untreated Tg2576 controls
Source text: For a genetic model of familial AD (FAD), Tg2576 mice (Taconic Biosciences, Rensselaer, N.Y., USA) were used with neuron-specific overexpression of human APPSwe, i.e the Swedish mutation of APP695 isolated from a Swedish family with FAD featuring the double mutation K670N/M671L (Hsiao et al., Science 274, 99-103 (1996)). As a genetic model of tauopathy, the Tg-TauP301L mice (Model 2508, Taconic Biosciences, Rensselaer, N.Y., USA) with neuron-specific expression of the most common FTDP-17 (frontotemporal dementia and parkinsonism linked to chromosome 17) mutation (Lewis et al., Nature Genetics 25, 402-405 (2000)) were used. To enhance neurodegeneration and neuronal loss, the CUMS (chronic unpredictable mild stress) protocol was performed with male 12 months-old Tg2576 mice for 3 months essentially as described (AbdAlla et al., J. Biol. Chem. 284, 6554-6565 (2009); AbdAlla et al., J. Biol. Chem. 284, 6566-6574 (2009)). […]
For Abeta plaque load quantification by immunohistochemistry, paraffin-embedded brain sections (or cryosections) (8 microm, 10-15 sections/brain taken at 30-50 microm intervals) were prepared from brains isolated from 18-month-old Tg2576 mice (Taconic Biosciences, Rensselaer, N.Y., USA) treated for six months without and with Compound-1 and Compound-4 (8 mg/kg body weight/day in drinking water). […]

[2] = Safety and tolerability in healthy human research participants (phase-1 study); format: in vivo
Protocol: Study design: The study was a three-part phase-1, randomized, placebo-controlled study of Compound-1F. The primary end-point was safety and tolerability. Secondary objectives were plasma pharmacokinetics data (part-1, part-2, part-3) and peripheral blood mononuclear cell MPP1 status (part-3).
The first part (part-1) was a single ascending dose-effect study with three cohorts of 4 healthy research participants each, who received a single dose of 20 mg, 40 mg or 60 mg in subsequent cohorts. Three drug-treated and one placebo-treated subjects were randomized in each cohort (2 males, 2 females; age: 35-65 years). After completion of safety assessment, blood was drawn for analysis of pharmacokinetics data.
In the second part (part-2) of the study, the daily dose was increased every two days until the final dose of 60 mg/day was reached, i.e. the daily dose was 20 mg on day-1 and day-2, 40 mg on day-3 and day-4, and 60 mg on day-5 until day-14. Blood was drawn before study begin for analysis of laboratory parameters and on day-14 for analysis of laboratory parameters and determination of pharmacokinetics data, at the indicated time points after administration of the last dose of 60 mg. All study participants (n=10; 7 males, 3 females; Caucasians; age: 37-66 years; 8 participants received drug, and two received placebo) were healthy and had the possibility to withdraw from the study at any time. All study participants wanted to complete the study.
In the third part (part-3) of the study, a cohort of 8 healthy elderly voluntary research participants (7 males, 1 female; age 60-73 years; all Caucasians) received a daily oral dose of 60 mg of Compound-1F for 28 days (6 participants received drug, 2 placebo). In part-3 of the study, blood was drawn before study begin for analysis of clinical laboratory parameters and MPP1 status, and on day-28 for analysis of laboratory parameters and MPP1 status, and 24 h after the last drug intake for measurement of serum concentration of Compound-1F. All participants of part-3 had the possibility to withdraw from the study at any time but all study participants wanted to complete the study.
The study participants were under the medical supervision of the Rabaa El Adaweya Medical Central Hospital, Cairo, Egypt (Clinical study director: Dr. Raafat Mahmood Fawzy). […] One participant in the placebo group and 1 participant in the drug treatment group (part-2 of the study) reported softer stools beginning on day-3 after drug/placebo intake. This side effect ended after completion of the study, and was most likely due to the intake of mannitol, which was used as an additive for formulation of study drug and placebo. There were no other adverse effects in part-1, part-2 and part-3 of the study.

[3] = healthy humans, 14 days of repeated once daily oral dosing

With `O=C(C1=C(O)C(c2ccccc2)N(c2ccc3c(c2)OCO3)C1=O)C1CC1` (stereo not shown) [Compound-1, 1-(1,3-benzodioxol-5-yl)-4-(cyclopropane-carbonyl)-3-hydroxy-2-phenyl-2H-pyrrol-5-one] the “Abeta plaque load in hippocampus and frontal cortex” value [1] was “significantly retarded the accumulation of Abeta plaques”.
With `O=C(C1=C(O)C(c2ccc(F)cc2)N(c2ccc3c(c2)OCO3)C1=O)C1CC1` (stereo not shown) [Compound-1F, 1-(1,3-Benzodioxol-5-yl)-4-(cyclopropanecarbonyl)-2-(4-fluorophenyl)-3-hydroxy-2H-pyrrol-5-one] the “clinical laboratory parameters and cardiovascular examination data (blood pressure, heart rate)” value ([2]; all research participants, during and after the study (observation period 4 weeks)) was “within the normal range”, the “drug-related adverse events (safety assessment)” value ([2]; elderly participants, 28 days once daily 60 mg) was “no drug-related adverse events” and the clinical laboratory findings ([2]; elderly participants, before and after 28 days of once daily 60 mg) was “within the normal range”. The “percentage of neutrophils and lymphocytes” value [2, 3] was “within the normal range”, the “total number of white blood cells” value [2, 3] was “not altered” and the “hematologic parameters (Hb, HCT, MCV, MCHC, RBCs) before vs after treatment” value ([2]; healthy humans, once daily 60 mg, 14 days of study) was “not significantly different”. The “treatment related adverse effects (safety assessment)” value ([2]; healthy humans, oral Compound-1F, single ascending dose 20-60 mg) was “no treatment related adverse effects”, the “kidney (serum urea, creatinine) and liver (AST, ALT) function parameters” value ([2]; healthy humans, repeated once daily 60 mg/d) was “within the normal range” and the “participants in the drug treatment group reporting softer stools” value ([2]; part-2 of the study, beginning on day-3, attributed to mannitol) was 1 participant.
